In test [1] the target is Hepatocyte nuclear factor 4-alpha (Homo sapiens, UniProt P41235). In kind it is functional, cell-based.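 Note: biochemical luminescence-based dose-response counterscreen measuring inhibition of HNF4 dimerization, run alongside a screen for blockers of ABHD5–perilipin-5 interaction; split luciferase complementation of HNF4 fusion proteins in cell lysate measuring dimerization.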
In test [2] the target is Induced myeloid leukemia cell differentiation protein Mcl-1 (Homo sapiens, UniProt Q07820). It counts as functional.
The target in test [3] is T1, Mannose-6-phosphate isomerase (Homo sapiens, UniProt P34949).
T1 sequence (P34949 whole entry): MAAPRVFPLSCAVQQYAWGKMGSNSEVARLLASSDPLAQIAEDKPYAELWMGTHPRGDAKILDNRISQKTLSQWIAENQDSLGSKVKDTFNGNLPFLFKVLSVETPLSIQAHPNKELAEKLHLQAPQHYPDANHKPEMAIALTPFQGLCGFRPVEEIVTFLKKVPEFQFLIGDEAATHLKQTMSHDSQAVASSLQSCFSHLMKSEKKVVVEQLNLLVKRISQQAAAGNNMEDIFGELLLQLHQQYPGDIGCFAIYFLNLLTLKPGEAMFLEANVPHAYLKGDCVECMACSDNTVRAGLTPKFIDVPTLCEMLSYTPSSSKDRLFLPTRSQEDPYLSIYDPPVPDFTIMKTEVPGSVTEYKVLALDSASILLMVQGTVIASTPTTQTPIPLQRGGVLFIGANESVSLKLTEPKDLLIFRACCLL
As to the kind of experiment: MPI inhibition at elevated mannose 6-phosphate – biochemical, fluorescence intensity, high mannose 6-phosphate, primary screen (AID 1220).

Test [4] has as its target T2, Apoptotic protease-activating factor 1 (Homo sapiens, UniProt O14727).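 Note: caspase-3 cleavage of fluorogenic Rh110 DEVD substrate downstream of apoptosome activation.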
T2 sequence (O14727 whole entry): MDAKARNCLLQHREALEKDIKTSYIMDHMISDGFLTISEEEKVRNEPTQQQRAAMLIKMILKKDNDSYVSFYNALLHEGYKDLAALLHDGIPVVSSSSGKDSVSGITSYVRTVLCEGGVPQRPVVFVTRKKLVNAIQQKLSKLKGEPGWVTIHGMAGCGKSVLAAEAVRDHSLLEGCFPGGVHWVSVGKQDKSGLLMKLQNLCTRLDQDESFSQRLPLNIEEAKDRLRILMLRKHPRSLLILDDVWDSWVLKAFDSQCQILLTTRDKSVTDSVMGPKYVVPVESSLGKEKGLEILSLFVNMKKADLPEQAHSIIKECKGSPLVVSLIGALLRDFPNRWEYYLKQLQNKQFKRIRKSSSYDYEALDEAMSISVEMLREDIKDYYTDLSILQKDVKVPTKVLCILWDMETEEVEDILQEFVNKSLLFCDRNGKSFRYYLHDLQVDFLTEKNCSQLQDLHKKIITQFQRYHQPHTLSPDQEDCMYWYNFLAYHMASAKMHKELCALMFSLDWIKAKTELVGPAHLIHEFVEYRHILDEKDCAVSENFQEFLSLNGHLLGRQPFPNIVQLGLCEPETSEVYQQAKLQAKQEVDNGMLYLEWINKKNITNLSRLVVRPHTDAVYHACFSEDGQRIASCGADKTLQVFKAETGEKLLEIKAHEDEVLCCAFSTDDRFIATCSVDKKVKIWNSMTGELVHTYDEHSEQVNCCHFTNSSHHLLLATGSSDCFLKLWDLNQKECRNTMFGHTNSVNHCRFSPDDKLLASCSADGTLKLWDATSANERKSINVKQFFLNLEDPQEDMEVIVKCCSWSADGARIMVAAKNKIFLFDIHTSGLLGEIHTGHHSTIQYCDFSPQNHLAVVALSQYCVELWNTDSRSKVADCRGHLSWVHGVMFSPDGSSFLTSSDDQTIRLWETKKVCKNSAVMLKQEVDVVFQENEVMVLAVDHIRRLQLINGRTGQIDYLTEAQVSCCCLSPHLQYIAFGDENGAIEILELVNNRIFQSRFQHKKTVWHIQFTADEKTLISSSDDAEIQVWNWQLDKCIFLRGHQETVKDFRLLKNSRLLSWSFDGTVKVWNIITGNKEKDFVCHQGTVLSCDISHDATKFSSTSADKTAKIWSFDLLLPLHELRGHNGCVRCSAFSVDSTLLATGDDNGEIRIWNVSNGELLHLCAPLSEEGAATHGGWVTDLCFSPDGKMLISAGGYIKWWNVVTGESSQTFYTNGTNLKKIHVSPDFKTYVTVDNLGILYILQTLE
As to the kind of experiment: SAR analysis of small molecule Activators of Apaf-1 in a Fluorescent assay. In kind it is functional. The following applies: read-out: EC50_Mean.

Test [5] can be described thus: cAMP pathway inhibition in counterscreen cell line – TR-FRET cAMP detection, counter-screen for MC4R biased antagonist project, dose response (AID 602305).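 Note: U2OS cells stimulated with forskolin near its EC80 as the cAMP inducer; potency is for inhibition of forskolin-stimulated cAMP signaling.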 It counts as functional, cell-based. A general note: Counterscreens check selectivity or assay interference.
The target in test [6] is Melanocortin receptor 4 (Homo sapiens, UniProt P32245). As to the kind of experiment: inhibitors of MC4R cAMP signaling – cell-based, TR-FRET, biased antagonists, dose response (AID 602298).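 Note: antagonist potency against agonist-stimulated cAMP production.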 In kind it is functional.
Chain of Melanocortin receptor 4 (P32245 whole entry): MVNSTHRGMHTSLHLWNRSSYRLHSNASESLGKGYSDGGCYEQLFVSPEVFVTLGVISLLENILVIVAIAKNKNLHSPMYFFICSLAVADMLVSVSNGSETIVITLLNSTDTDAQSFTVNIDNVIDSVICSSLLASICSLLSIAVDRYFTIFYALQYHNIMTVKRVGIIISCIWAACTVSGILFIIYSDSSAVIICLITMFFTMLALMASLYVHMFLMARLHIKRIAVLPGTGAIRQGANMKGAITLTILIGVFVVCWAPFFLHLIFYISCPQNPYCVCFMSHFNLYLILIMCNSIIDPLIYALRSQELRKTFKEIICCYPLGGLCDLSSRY
Test [7] addresses Steroidogenic factor 1 (Homo sapiens, UniProt Q13285). In words: Counterscreen for inverse agonists of the liver receptor homolog-1 (LRH-1; NR5A2): Luminescence-based cell-based high throughput dose response assay to identify inverse agonists of the Steroidogenic Factor 1 Nuclear Receptor (SF1; NR5A1). In kind it is functional.
Test [8] deals with Nuclear receptor subfamily 5 group A member 2 (Homo sapiens, UniProt O00482). In kind it is functional, cell-based.
The nature of test [9]: nonselective StAR promoter luciferase inhibitors – cell-based, luminescence, luciferase reporter, counter-screen for LRH-1 inverse agonist project, dose response (AID 651969). In kind it is functional. A general note: Reporter assays use an easily measured gene product as a stand-in for the process of interest.
The nature of test [10]: viability of PTEN-deleted HCT116 cells – cell-based, HCT116 PTEN knockout, dose response (AID 1047).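 Note: HCT116 colon tumor cells with PTEN knocked out; cells exposed to compound for 60 hours before readout; potency for loss of cell viability measured by luminescence.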 It counts as functional.
The nature of test [11]: viability of HCT116 lacking mutant beta-catenin – cell-based, human colon tumor, dose response (AID 1045).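 Note: HCT116 colon tumor cells with beta catenin knocked out; cells exposed to compound for 60 hours.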 It counts as functional.
Test [12] concerns the target Tyrosine-protein kinase JAK2 (Homo sapiens, UniProt O60674). It counts as functional.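 Note: JAK2 tested as one member of a kinase panel.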
Test [13] has as its target Tyrosine-protein kinase JAK3 (Homo sapiens, UniProt P52333). In kind it is functional.
The target of test [14] is Glyceraldehyde-3-phosphate dehydrogenase (Homo sapiens, UniProt P04406).
Chain of Glyceraldehyde-3-phosphate dehydrogenase (P04406 whole entry): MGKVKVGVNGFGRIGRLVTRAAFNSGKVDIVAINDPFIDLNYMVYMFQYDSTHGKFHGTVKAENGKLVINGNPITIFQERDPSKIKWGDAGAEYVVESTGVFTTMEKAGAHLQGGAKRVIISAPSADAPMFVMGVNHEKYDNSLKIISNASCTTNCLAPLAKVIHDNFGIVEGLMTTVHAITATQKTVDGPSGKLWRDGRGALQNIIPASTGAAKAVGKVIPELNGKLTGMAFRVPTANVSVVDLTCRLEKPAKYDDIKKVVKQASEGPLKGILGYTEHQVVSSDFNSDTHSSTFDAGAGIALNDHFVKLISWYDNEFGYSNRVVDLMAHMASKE
The target in test [15] is Potassium voltage-gated channel subfamily KQT member 2 (Rattus norvegicus, UniProt O88943). As to the kind of experiment: blockers of KCNQ2 channel current – cell-based, automated electrophysiology, set II, rat KCNQ2, dose response (AID 588637). It counts as functional.
The target in test [16] is Paired box protein Pax-8 (Homo sapiens, UniProt Q06710). As to the kind of experiment: PAX8 transcriptional activity inhibition in RMG-I – RMG-I cells, luciferase, cherry-pick, dose response (AID 687027).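 Note: luciferase reporter driven by Pax8 target thyroperoxidase promoter measured by SteadyGlo luminescence.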 It counts as functional, cell-based.
Chain of Paired box protein Pax-8 (Q06710 whole entry): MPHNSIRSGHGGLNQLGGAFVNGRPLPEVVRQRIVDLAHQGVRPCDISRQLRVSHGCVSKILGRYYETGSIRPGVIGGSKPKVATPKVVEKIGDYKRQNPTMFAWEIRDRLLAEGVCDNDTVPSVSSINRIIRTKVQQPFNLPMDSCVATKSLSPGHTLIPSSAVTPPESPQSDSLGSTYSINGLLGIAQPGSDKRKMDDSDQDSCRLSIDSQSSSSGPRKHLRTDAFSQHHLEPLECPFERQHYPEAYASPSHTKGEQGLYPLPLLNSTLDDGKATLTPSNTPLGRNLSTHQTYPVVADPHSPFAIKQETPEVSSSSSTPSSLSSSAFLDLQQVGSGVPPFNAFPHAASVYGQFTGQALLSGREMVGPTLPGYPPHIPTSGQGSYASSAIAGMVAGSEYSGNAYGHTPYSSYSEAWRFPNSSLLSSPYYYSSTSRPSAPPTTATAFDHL
Test [17] in a line: Counterscreen for activators of the function of SWI/SNF related, matrix associated, actin dependent regulator of chromatin, subfamily a, member 2 (SMARCA2, BRM): Luminescence-based cell-based high throughput dose response assay to identify non-selective compounds using the VP16 reporter assay. In kind it is functional.
For test [18], the target named is SWI/SNF-related matrix-associated actin-dependent regulator of chromatin subfamily A member 2 (Homo sapiens, UniProt P51531). As to the kind of experiment: Luminescence-based cell-based high throughput dose response assay to identify activators of the function of SWI/SNF related, matrix associated, actin dependent regulator of chromatin, subfamily a, member 2 (SMARCA2, BRM). In kind it is functional.
Chain of SWI/SNF-related matrix-associated actin-dependent regulator of chromatin subfamily A member 2 (P51531 whole entry): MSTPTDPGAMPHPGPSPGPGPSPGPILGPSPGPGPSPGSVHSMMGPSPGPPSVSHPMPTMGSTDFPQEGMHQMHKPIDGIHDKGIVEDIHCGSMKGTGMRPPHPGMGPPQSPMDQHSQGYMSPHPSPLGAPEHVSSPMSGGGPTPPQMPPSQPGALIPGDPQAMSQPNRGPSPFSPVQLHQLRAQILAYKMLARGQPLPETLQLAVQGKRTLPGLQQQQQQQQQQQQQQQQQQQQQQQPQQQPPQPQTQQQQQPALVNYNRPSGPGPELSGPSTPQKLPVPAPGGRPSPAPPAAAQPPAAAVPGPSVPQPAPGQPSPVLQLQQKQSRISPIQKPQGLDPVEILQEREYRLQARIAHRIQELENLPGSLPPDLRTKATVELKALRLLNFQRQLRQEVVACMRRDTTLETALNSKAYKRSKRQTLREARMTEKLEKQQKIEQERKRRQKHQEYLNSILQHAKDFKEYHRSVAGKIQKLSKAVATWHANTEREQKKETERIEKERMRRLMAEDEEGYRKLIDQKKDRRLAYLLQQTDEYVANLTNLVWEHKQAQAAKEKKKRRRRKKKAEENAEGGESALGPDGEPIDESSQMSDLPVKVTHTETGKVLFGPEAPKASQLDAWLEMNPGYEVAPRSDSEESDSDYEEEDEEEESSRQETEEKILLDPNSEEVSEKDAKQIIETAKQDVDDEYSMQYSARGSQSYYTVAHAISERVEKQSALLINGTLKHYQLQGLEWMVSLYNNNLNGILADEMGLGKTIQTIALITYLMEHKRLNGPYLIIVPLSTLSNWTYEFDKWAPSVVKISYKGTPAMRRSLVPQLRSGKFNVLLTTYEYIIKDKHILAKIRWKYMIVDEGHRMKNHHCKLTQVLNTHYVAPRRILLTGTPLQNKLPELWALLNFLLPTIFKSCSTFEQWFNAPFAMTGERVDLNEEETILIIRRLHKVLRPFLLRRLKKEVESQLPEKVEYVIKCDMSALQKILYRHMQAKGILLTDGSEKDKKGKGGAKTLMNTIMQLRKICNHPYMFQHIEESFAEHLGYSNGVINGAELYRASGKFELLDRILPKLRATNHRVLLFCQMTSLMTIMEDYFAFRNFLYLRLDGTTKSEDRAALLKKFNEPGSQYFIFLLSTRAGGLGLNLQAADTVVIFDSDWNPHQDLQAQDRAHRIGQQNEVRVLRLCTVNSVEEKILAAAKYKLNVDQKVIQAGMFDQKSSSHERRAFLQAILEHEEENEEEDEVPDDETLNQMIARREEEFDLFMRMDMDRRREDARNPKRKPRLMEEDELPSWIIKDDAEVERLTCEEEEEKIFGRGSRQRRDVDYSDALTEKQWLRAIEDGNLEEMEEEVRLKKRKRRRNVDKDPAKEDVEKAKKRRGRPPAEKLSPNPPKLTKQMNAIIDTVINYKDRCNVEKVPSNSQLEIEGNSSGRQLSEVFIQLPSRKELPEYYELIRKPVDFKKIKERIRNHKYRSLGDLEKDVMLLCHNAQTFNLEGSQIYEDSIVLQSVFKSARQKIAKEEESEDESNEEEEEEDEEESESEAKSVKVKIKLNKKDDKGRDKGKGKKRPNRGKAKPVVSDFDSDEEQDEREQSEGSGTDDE

In test [19] the target is T3, Interleukin-8 (Homo sapiens, UniProt P10145). In words: Dose Response confirmation of uHTS small molecule hits for cystic fibrosis induced NFkb Inhibitors in a TNFa-induced IL8 counterscreen. In kind it is functional. The following applies: read-out: IC50_Mean.
T3 sequence (P10145 whole entry): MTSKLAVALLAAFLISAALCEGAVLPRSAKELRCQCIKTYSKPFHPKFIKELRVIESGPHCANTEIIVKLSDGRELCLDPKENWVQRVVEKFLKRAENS
The target of test [20] is T3, Interleukin-8. In words: Dose Response confirmation of uHTS small molecule hits for cystic fibrosis induced NFkb Inhibitors in a PAF-induced IL8 counterscreen. The following applies: read-out: IC50_Mean. In kind it is functional.

Activity calls are given as the source filed them.

Chain of Steroidogenic factor 1 (Q13285 whole entry): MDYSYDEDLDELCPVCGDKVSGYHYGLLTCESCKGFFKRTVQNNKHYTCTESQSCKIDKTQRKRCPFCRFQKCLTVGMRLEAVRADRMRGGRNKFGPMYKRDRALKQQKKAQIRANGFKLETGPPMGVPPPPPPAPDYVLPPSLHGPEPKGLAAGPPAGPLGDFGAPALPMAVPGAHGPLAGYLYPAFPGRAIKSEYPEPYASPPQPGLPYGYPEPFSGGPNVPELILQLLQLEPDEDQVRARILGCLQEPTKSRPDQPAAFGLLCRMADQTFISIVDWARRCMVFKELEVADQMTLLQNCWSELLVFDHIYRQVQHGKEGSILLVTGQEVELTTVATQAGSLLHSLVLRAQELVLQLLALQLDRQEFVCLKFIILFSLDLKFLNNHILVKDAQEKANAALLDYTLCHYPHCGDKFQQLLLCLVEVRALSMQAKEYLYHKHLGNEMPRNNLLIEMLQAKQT
Chain of Tyrosine-protein kinase JAK2 (O60674 whole entry): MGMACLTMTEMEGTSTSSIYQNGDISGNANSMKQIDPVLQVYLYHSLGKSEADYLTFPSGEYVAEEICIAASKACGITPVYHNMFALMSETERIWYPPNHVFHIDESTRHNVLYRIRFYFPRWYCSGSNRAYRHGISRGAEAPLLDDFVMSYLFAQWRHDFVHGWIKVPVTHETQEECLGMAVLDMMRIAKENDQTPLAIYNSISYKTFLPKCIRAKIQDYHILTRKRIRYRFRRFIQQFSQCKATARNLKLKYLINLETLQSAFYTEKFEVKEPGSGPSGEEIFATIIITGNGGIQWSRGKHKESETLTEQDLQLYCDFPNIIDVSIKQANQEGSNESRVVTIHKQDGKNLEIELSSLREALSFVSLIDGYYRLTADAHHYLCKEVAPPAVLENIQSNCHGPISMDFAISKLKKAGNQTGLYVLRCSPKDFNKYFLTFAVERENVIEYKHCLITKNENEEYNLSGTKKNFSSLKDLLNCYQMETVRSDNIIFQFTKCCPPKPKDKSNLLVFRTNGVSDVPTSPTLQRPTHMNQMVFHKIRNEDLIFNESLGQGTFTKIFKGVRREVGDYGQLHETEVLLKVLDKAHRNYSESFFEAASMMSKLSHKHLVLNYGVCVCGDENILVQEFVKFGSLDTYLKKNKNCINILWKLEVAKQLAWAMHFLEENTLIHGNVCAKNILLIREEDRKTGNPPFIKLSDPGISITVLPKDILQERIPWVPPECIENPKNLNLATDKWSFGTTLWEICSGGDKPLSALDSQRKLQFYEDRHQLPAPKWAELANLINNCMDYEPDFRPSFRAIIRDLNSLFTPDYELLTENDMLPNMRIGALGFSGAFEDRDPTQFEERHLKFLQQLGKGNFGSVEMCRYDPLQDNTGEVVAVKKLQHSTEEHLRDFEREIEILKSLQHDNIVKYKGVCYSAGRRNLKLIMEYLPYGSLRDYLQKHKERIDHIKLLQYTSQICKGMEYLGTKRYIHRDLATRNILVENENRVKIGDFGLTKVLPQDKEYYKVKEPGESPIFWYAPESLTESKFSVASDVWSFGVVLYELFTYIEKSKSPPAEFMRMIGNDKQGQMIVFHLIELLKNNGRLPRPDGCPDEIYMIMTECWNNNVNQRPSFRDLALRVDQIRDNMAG
Chain of Hepatocyte nuclear factor 4-alpha (P41235 whole entry, the tested form may be a part): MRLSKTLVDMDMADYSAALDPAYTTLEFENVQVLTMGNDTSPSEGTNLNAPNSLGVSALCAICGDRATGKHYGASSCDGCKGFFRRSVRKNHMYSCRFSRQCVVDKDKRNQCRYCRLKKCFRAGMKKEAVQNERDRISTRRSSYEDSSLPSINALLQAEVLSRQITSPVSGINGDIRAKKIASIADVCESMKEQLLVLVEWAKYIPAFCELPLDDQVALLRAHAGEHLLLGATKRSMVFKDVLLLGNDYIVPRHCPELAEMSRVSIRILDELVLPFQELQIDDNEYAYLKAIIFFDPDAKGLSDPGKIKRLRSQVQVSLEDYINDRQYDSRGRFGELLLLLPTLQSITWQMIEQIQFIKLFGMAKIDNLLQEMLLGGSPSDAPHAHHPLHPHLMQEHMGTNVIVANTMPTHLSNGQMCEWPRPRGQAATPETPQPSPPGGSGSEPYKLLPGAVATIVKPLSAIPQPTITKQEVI

As to `CCOC(=O)c1c(C)oc2c1c(CN1CCN(CCO)CC1)c(O)c1ccccc12`, the IC50 is 2.31 µM (active) in [1], 1.13 µM (active) in [2] and > 50 µM (not active) in test [3].
`COc1ccccc1NC(=O)CCS(=O)(=O)c1ccc2c(c1)NC(=O)C(C)S2` (configuration not stated): the EC50 in test [4] was > 100 µM (inactive).
For `CCOC(=O)N1CCN(CCC(=O)c2ccc(OC)cc2)CC1`, the IC50 in [5] and in test [6] was > 64.5 µM (inactive) in each case.
In the case of `CCc1cc(=O)oc2c(C)c(OCC(=O)NCCN3CCOCC3)ccc12`, the IC50 is 9.97 µM (active) in test [7], 35.9 µM (inactive) in test [8] and 35.9 µM (inactive) in test [9].
Consider `CCc1ccc(OCC(=O)NC(N=C(S)Nc2ccccc2OC)C(Cl)(Cl)Cl)cc1` (configuration not stated), for which the IC50 in [5] and in [6] was > 64.6 µM (inactive) in each case. Besides, the results for the EC50 in test [10] and in test [11] were 9.76 µM (active) and 9.32 µM (active), respectively.
For the molecule `O=c1[nH]c2cnc(-n3cnc4ccc(F)cc43)nc2n1C1CCOc2c(F)cccc21` (configuration not stated), the Ki in test [12] and in test [13] was 0.00501 µM (active) in each case.
In the case of `Cc1cc(C)c(/N=C2\CCCN2Cc2ccccc2)c(C#N)c1`, the IC50 in test [14] is > 100 µM (not active); in [15] it was 1.99 µM (active).
For the molecule `C=C1C(=O)[C@]23C[C@H]1CC[C@H]2[C@]1(C)[C@@H](OC(C)=O)CC[C@@](C)(C(=O)O)[C@H]1C[C@@H]3O`, the AC50 (in general, the concentration at which the activity in the assay is half-maximal) in test [16] was 4.07 µM (active). The EC50 in test [17] and in test [18] was > 91.3 µM (inactive) in each case. In addition, the IC50 in test [19] is > 79 µM (inactive); in [20], 0.293 µM (active).

Values taken from ChEMBL document CHEMBL1201862, “PubChem BioAssay data set” (2004).
